According to patent publication US8846704B2, “Thiopyrimidine-based compounds and uses thereof” (YM Biosciences Austraila Pty Ltd, priority 2007, dated 2014):

Assays:
human JAK3 = target: T1, human JAK3 (Homo sapiens, UniProt P52333); test: Alphascreen tyrosine kinase enzyme assay, JAK3 kinase domain; assay type: biochemical; settings: read-out: JAK3 IC50_nM
T1 construct: The kinase domain of human JAK3 was amplified; GST (N); made in house; host or cells: Sf9 insect cells (baculovirus)
Method: (§1) For screening purposes, compounds (in 100% DMSO) were warmed at 37 degrees for at least 20 minutes before use. A […] stock was initially made in assay buffer, where the final concentration of DMSO was 0.3%. The stocks were then diluted in 384 well Optiplates (Packard) where the final concentration of the compound was […].
The kinase domain of human JAK3 was amplified from U937mRNA using the polymerase chain reaction with the following primers: […]
The JAK3 PCR products were cloned into the pDest20 destination expression vector (Gibco). The JAK3 plasmid was then transformed into competent DH10Bac cells (Gibco), and the recombinant baculovirus was prepared via Sf9 insect cell transfection.
(§2) Baculovirus preparations from each of the constructs were infected into either one or five liters of Sf9 cells (Invitrogen) grown in SF-900 medium (Invitrogen) to a cell density of approximately 1-2×10^6 cells/ml. Cells were infected with virus at a MOI of 0.8-3.0. Cells were harvested and lysed. Tyrosine kinase domains were purified by affinity chromatography on a glutathione-agarose column (Scientifix Pty. Ltd. catalog #: GSH-200).
(§3) Kinase assays were performed in 384 well Optiplates (Packard) using an Alphascreen Protein Tyrosine Kinase PY100 detection kit The compounds were pre-incubated with affinity purified PTK domain in the presence of phosphotyrosine assay buffer (10 mM HEPES, pH 7.5, 100 mM MgCl2, 25 mM NaCl, […] and 0.1% Tween 20) for 20 minutes. The compounds were then incubated with substrate in the presence of ATP. The substrate used was susbtrate-1 with the sequence biotin-EGPWLEEEEEAYGWMDF-NH2 [SEQ. ID. NO. 13] (final concentration […]). For HCK 80 μm ATP was used and incubated for 60 minutes. Alphascreen phosphotyrosine acceptor beads followed by streptavidin donor beads at a concentration of 1/100 in stop buffer were added to each well under subdued light and incubated for 2-3 hours., The Alphascreen plates were read on a Packard Fusion Alpha instrument.

[1] = target: T2, BaF3 TELJAK2 cells (BafT_J2) (Homo sapiens, UniProt O60674); test: Cellular screening, BaF3 TEL:JAK2 cells, Alamar Blue; assay type: cell-based; settings: 40 hr, read-out: BafT_J2 IC50_nM
T2 construct: fused on or other part: TEL (ETV6) N-terminal part, coding nucleotides 1-487, serves as the oligomerising partner; It is fused through a Sal I site to the JAK2 kinase domain and expressed from pTRE2 in BaF3 cells bearing pTET-off; P41212 (Transcription factor ETV6)
T2 sequence (O60674 whole entry, change not shown, the tested form may be a part): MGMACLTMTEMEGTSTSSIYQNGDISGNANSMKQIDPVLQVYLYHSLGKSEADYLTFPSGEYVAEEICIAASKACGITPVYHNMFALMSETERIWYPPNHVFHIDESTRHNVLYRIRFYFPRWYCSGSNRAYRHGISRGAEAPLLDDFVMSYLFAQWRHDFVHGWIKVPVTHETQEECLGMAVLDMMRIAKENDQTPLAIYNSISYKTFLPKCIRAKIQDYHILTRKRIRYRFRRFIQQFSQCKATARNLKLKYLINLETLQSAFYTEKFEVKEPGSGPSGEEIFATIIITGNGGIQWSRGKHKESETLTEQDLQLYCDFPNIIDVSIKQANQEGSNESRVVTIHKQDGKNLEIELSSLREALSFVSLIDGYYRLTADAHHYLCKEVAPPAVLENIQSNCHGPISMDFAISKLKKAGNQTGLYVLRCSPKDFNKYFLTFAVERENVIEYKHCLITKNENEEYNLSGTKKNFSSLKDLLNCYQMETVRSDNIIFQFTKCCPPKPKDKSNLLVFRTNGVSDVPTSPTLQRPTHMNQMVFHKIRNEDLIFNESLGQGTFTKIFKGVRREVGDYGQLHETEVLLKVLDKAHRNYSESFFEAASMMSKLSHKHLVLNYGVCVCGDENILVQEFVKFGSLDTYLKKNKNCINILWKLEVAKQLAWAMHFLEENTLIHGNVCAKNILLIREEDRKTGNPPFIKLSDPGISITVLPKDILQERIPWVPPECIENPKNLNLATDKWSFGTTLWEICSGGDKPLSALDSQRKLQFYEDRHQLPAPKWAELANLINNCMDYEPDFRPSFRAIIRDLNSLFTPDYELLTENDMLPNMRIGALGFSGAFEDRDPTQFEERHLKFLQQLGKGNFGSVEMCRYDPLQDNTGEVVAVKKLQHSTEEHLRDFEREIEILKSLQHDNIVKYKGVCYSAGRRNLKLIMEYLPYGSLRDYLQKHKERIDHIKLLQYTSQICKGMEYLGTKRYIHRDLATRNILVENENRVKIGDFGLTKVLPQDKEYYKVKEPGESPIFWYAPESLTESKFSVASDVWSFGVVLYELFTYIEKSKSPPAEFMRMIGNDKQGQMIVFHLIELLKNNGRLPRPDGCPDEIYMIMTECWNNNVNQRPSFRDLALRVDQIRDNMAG
Method: (§4) For screening purposes, compounds were diluted in 96 well plates at a concentration of 20 μM. Plates were warmed at 37° C. for 30 minutes before the assay was performed.
The coding region encompassing nucleotides 1-487 of TEL was amplified by PCR using the oligonucleotides STEL (5′-GGAGGATCCTGATCTCTCTCGCTGTGAGAC-3′) [SEQ ID NO 14] and 3TEL (5′-AGGC GTCGACTTCTTCTTCATGGTTCTG-3′) [SEQ ID NO 15] and U937 mRNA as a template. A […] restriction site was incorporated into the STEL primer, and a Sal I restriction site was incorporated into the 3TEL primer. The regions encompassing the kinase domain of JAK2 (nucleotides 2994-3914; JAK2F 5′-ACGC GTCGACGGTGCCTTTGAAGACCGGGAT-3′ [SEQ ID NO 16]; JAK2R 5′-ATAGTTTAGCGGCCGCTCAGAATGAAGGTCATTT-3′) [SEQ ID NO 17] and JAK3 (nucleotides 2520-3469; JAK3F 5′-GAAGTCGACTATGCCTGCCAAGACCCCACGATCTT-3′) [SEQ ID NO 18] were generated by PCR using Taq DNA polymerase (Gibco/BRL) and […] as a template. A Sal I restriction site was incorporated into the forward primer of JAK2 and JAK3, a Not I site was incorporated into the JAK2 reverse primer and a Xba I site was added to the reverse primer of JAK3.
A TEL/Jak2 fusion was generated by digestion of the TELPCR product with BamH I/Sal I restriction enzymes, digestion of the JAK2 PCR product with Sal I/Not I restriction enzymes, followed by ligation and subcloning of the ligation product into the mammalian expression Vector pTRE 2 (Clontech), which was prepared by digestion with BamH I-Not I restriction enzymes, to give the TEL/Jak2 fusion plasmid pTELJAK2.
(§5) The growth factor dependant myelomonocytic cell line BaF3 bearing the pTET-off plasmid (Clontech) was transfected with either pTELJAK2 or pTELJAK3, and the transfected cells were selected for growth-factor independent cell growth. The BaF3 wild-type cells were cultured in DMEM containing 10% FCS, 10% WEHI 3B conditioned medium. The BaF3 TELJAK cells ([…]) were cultured in DMEM 10% Tet-System Approved FBS (without WEHI 3B conditioned medium).
(§6) Cell suspensions were prepared by harvesting cells from culture (the cells used in this test were in late log phase growth with high viability.) Cells were diluted in the appropriate growth medium, as described above, to 1.1× final concentration (from 50,000 cell/mL to 200,000 cell/mL, depending on cell line).
(§7) Compounds to be tested were added (10 μL, 10× final concentration) to a flat bottomed 96-well plate. The cellular suspension (90 μL per well) was then added, and the plate incubated for 40 hr at 37° C., 5% CO2. Alamar Blue 10 μL per well was added and the plates returned to the incubator for a further 4-6 hours. The plates were then read at 544 nm.

CTLL2 = test: Cellular screening, CTLL2 cells, Alamar Blue; assay type: cell-based; settings: Mus musculus, CTLL-2, read-out: CTLL2 IC50_nM
Method: as §6, §7

BaF3 wild-type cells = test: Cellular screening, BaF3 wild-type cells, Alamar Blue; assay type: cell-based; settings: Mus musculus, 40 hr, read-out: BAF3wt IC50_nM
Method: as §4, §5, §6, §7

human JAK2 = target: T3, human JAK2 (Homo sapiens, UniProt O60674); test: Alphascreen tyrosine kinase enzyme assay, JAK2 kinase domain; assay type: biochemical; settings: read-out: JAK2 IC50_nM
T3 construct: The kinase domain of human JAK2 was amplified; GST (N); made in house; host or cells: Sf9 insect cells (baculovirus)
T3 sequence (O60674 849-1124 limits assumed): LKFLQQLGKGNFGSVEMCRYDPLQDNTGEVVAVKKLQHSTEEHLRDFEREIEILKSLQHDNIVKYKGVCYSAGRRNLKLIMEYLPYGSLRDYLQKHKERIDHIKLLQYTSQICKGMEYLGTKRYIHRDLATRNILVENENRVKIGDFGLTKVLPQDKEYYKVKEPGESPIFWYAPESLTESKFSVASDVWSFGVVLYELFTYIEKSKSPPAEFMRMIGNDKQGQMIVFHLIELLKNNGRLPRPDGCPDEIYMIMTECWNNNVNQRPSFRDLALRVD
Method: as §1
The kinase domain of human JAK2 was amplified from U937mRNA using the polymerase chain reaction with the following primers: […]
The JAK2 PCR products were cloned into the pDest20 destination vector (Gibco). The JAK2 plasmid was then transformed into competent DH10Bac cells (Gibco), and the recombinant baculovirus was prepared via Sf9 insect cell transfection.
as §2, §3

Blk(m) = target: T4, Blk(m) (Mus musculus, UniProt P16277); test: Upstate KinaseProfiler enzyme assay, Blk; assay type: biochemical; settings: 500 nM compound; read-out: Percent inhibition at 500 nM Blk(m)
T4 construct: purchased Upstate Biotechnology (Dundee, UK), KinaseProfiler service
T4 sequence (P16277 whole entry): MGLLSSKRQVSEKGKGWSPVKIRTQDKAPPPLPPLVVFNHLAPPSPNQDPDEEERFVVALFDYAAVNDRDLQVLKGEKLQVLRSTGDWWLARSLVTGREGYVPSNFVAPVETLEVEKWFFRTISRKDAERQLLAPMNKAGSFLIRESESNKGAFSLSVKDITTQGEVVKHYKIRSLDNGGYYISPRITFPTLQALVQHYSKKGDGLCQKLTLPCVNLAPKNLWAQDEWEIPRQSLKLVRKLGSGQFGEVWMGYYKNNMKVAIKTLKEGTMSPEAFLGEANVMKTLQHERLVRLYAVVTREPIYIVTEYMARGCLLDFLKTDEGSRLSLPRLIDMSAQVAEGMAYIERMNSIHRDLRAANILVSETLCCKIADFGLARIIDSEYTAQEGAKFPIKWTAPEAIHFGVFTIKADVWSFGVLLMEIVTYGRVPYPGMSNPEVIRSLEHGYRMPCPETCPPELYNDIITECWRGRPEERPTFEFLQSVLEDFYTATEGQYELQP
Method: (§8) Further enzyme assays were conducted at Upstate Biotechnology (Dundee, UK) in the KinaseProfiler™ Assay system.
(§9) The general protocol is as follows. All kinases are pre-diluted to a 10× working concentration prior to addition into the assay. The composition of the dilution buffer for the kinases is 20 mM MOPS pH 7.0, 1 mM EDTA, 0.1% β-mercaptoethanol, 0.01% Brij-35, 5% glycerol, 1 mg/ml BSA. All substrates are dissolved and diluted to working stocks in de-ionised water.

KDR(h) = target: T5, KDR(h) (Homo sapiens, UniProt P35968); test: Upstate KinaseProfiler enzyme assay, KDR; assay type: biochemical; settings: 500 nM compound; read-out: Percent inhibition at 500 nM KDR(h)
T5 construct: purchased Upstate Biotechnology (Dundee, UK), KinaseProfiler service
T5 sequence (P35968 20-1356): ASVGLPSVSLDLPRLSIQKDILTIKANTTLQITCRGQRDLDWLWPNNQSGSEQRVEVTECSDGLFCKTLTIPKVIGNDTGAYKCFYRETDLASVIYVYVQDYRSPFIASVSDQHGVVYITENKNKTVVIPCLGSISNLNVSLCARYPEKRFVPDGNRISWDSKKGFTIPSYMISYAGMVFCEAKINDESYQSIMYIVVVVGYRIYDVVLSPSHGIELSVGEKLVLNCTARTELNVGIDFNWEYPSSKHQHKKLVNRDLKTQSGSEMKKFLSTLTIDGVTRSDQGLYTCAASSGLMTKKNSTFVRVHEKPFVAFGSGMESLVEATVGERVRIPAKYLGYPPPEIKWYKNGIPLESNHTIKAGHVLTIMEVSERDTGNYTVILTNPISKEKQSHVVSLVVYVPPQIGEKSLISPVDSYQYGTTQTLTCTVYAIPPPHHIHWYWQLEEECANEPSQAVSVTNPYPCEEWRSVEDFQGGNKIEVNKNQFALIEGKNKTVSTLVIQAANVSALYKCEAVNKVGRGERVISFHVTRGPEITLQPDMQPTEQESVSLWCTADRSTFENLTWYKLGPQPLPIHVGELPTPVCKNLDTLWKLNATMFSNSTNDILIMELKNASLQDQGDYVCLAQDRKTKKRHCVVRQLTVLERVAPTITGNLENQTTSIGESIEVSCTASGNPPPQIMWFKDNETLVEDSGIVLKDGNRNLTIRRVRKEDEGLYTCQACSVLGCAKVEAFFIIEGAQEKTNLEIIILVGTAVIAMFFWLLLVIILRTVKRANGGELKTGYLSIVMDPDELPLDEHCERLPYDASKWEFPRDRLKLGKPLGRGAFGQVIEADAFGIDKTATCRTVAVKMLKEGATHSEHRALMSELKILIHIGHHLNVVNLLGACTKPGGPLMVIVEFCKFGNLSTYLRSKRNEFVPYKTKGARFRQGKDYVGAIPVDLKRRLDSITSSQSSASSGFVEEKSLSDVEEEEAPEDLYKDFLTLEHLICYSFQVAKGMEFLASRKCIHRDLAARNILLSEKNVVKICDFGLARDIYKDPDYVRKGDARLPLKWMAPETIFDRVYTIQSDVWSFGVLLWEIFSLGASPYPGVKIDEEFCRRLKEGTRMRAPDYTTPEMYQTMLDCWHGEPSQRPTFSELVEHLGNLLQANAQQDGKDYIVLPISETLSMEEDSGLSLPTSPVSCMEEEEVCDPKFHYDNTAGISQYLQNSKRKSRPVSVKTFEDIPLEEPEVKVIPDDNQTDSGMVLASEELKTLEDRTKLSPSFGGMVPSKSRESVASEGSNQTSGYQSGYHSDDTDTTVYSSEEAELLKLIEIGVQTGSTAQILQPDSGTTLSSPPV
Method: as §8, §9

Bmx(h) = target: T6, Bmx(h) (Homo sapiens, UniProt P51813); test: Upstate KinaseProfiler enzyme assay, Bmx; assay type: biochemical; settings: 500 nM compound; read-out: Percent inhibition at 500 nM Bmx(h)
T6 construct: purchased Upstate Biotechnology (Dundee, UK), KinaseProfiler service
T6 sequence (P51813 1-675): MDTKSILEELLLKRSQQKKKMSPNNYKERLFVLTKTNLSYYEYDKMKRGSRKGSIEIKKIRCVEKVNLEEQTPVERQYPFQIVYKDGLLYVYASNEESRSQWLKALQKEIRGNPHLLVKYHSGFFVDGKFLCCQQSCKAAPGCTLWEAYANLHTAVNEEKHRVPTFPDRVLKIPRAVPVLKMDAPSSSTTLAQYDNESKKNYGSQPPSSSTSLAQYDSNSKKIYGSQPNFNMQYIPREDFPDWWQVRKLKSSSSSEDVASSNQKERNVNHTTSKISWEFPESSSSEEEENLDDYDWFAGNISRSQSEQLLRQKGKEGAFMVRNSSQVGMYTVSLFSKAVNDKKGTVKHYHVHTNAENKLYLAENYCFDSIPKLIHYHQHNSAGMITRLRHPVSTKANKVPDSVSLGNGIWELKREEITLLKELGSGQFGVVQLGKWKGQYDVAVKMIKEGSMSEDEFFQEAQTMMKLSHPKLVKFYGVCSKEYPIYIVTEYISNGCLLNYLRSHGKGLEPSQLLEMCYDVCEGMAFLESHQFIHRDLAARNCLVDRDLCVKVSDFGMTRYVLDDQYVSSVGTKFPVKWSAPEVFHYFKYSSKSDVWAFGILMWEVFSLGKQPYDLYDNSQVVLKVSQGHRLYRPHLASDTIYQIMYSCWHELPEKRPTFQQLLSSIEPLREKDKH
Method: as §8, §9

BTK(h) = target: T7, BTK(h) (Homo sapiens, UniProt Q06187); test: Upstate KinaseProfiler enzyme assay, BTK; assay type: biochemical; settings: 500 nM compound; read-out: Percent inhibition at 500 nM BTK(h)
T7 construct: purchased Upstate Biotechnology (Dundee, UK), KinaseProfiler service
T7 sequence (Q06187 whole entry): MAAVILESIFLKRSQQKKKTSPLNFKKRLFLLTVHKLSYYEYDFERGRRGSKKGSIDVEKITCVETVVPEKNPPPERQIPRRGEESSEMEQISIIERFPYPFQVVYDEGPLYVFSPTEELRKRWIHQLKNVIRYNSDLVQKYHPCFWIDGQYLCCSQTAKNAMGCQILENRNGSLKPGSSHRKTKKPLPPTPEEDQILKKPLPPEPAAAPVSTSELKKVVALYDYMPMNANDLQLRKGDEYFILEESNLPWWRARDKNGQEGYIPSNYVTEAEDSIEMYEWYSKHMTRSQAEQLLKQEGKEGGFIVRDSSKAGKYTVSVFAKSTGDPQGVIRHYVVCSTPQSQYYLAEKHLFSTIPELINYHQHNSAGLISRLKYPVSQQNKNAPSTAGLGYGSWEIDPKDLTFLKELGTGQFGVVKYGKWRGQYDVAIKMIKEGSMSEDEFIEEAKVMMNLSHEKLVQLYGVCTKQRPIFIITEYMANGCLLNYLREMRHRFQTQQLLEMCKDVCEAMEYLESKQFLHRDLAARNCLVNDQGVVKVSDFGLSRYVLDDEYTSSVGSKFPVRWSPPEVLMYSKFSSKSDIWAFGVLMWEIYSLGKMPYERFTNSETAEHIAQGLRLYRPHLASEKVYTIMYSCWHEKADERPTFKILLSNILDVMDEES
Method: as §8, §9

human JAK1 = target: T8, human JAK1 (Homo sapiens, UniProt P23458); test: Alphascreen tyrosine kinase enzyme assay, JAK1 kinase domain; assay type: biochemical; settings: read-out: JAK1 IC50_nM
T8 construct: The kinase domain of human JAK1 was amplified; GST (N); made in house; host or cells: Sf9 insect cells (baculovirus)
T8 sequence (P23458 875-1153 limits assumed): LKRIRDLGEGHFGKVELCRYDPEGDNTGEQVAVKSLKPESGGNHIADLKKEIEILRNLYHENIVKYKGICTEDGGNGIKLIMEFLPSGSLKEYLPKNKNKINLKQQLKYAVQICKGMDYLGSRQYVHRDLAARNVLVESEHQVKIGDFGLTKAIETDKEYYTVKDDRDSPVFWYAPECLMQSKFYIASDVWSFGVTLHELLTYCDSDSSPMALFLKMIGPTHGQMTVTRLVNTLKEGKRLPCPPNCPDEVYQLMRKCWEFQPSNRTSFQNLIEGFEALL
Method: as §1
The kinase domain of human JAK1 was amplified from U937mRNA using the polymerase chain reaction with the following primers: […]
The JAK1 PCR products were cloned into the pDest20 destination vector (Gibco). The JAK1 plasmid was then transformed into competent DH10Bac cells (Gibco), and the recombinant baculovirus was prepared via Sf9 insect cell transfection.
as §2, §3

T1 sequence (P52333 822-1111 limits assumed): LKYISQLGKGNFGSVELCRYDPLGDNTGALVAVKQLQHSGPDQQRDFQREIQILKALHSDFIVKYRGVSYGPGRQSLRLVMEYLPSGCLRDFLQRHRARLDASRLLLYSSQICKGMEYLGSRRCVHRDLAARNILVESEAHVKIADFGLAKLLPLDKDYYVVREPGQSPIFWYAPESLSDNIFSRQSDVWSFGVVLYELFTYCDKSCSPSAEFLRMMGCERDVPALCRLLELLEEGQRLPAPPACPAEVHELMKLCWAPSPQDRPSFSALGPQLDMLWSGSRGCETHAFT

Row | Compound | IC50 (human JAK3) [µM] | GI50 [1] [µM] | IC50 (CTLL2) [µM] | IC50 (BaF3 wild-type cells) [µM] | IC50 (human JAK2) [µM] | inhibition at 0.5 µM (Blk(m)) [%] | inhibition at 0.5 µM (KDR(h)) [%] | inhibition at 0.5 µM (Bmx(h)) [%] | inhibition at 0.5 µM (BTK(h)) [%] | IC50 (human JAK1) [µM]
1 | C=CC(=O)Nc1ccc(Sc2nc(Nc3ccc(N4CCOCC4)cc3)ncc2C)c(Cl)c1 [Compound 252, N-(3-chloro-4-(5-methyl-2-(4-morpholinophenylao)pyrimidin-4-ylthio)phenyl)acrylamide] | < 0.1 | > 20 | < 1 | > 20 | > 1 | – | – | – | – | –
2 | C=CC(=O)Nc1ccc(Sc2ccnc(Nc3cccc(S(=O)(=O)NCCC(C)C)c3)n2)cc1 [Compound 363, N-(4-(2-(3-(N-isopentylsulfamoyl)phenylao)pyrimidin-4-ylthio)phenyl)acrylamide] | < 0.1 | – | – | – | > 1 | – | – | – | – | –
3 | C=CC(=O)Nc1ccc(Sc2ccnc(Nc3cc(OC)c(OC)c(OC)c3)n2)cc1 [Compound 71, N-(4-(2-(3,4,5-trimethoxyphenylao)pyrimidin-4-ylthio)phenyl)acrylamide] | – | – | – | – | – | 49 | 90 | 36 | 27 | –
4 | N#CCc1cn(Cc2ccc(Sc3ccnc(Nc4ccc(N5CCOCC5)cc4)n3)cc2)cn1 [Compound 90, 2-(1-(4-(2-(4-Morpholinophenylamino)pyrimidin-4-ylthio)benzyl)-1H-imidazol-4-yl)acetonitrile] | < 0.5 | < 5 | < 5 | < 20 | > 1 | – | – | – | – | –
5 | CC#CC(=O)Nc1cccc(Sc2ccnc(Nc3ccc(N4CCOCC4)cc3)n2)c1 [Compound 331, N-(3-(2-(4-morpholinophenylao)pyrimidin-4-ylthio)phenyl)but-2-ynamide] | < 0.5 | – | – | – | > 1 | – | – | – | – | –
6 | C/C=C/C(=O)Nc1ccc(Sc2ccnc(Nc3ccc(N4CCOCC4)cc3)n2)cc1 [Compound 59, (E)-N-(4-(2-(4-morpholinophenylao)pyrimidin-4-ylthio)phenyl)but-2-enamide] | – | – | – | – | – | 100 | 100 | 100 | 100 | –
7 | O=C(CCNc1ccccc1)Nc1ccc(Sc2ccnc(Nc3ccccc3)n2)cc1 [Compound 351, 3-(phenylao)-N-(4-(2-(phenylao)pyrimidin-4-ylthio)phenyl)propanamide] | – | – | – | – | – | 100 | 100 | 100 | 100 | –
8 | Cc1cnc(Nc2ccc(N3CCOCC3)cc2)nc1Sc1ccc(N)c(C)c1Cl [Compound 169, 4-(4-ao-2-chloro-3-methylphenylthio)-5-methyl-N-(4-morpholinophenyl)pyrimidin-2-ae] | < 0.1 | – | – | – | > 1 | – | – | – | – | > 1
9 | C=CC(=O)Nc1cccc(Nc2nccc(Sc3ncccn3)n2)c1 [Compound 3, N-(3-(4-(pyrimidin-2-ylthio)pyrimidin-2-ylao)phenyl)acrylamide] | < 0.1 | – | < 5 | – | > 1 | – | – | – | – | > 1
10 | Cc1cnc(Nc2ccc(N3CCOCC3)cc2)nc1Sc1ccc(Cn2cnc(C#N)c2C#N)cc1 [Compound 221, 1-(4-(5-methyl-2-(4-morpholinophenylao)pyrimidin-4-ylthio)benzyl)-1H-imidazole-4,5-dicarbonitrile] | < 0.5 | – | < 1 | < 1 | > 1 | – | – | – | – | –
